In assay [1] the test system is H-2D^d, H-2K^d or H-2L^d complexes. In words: T2 peptide binding assay, respective MHC class I complexes. Conditions: Figure 3A; TAP-deficient T2 cells, 100 µM to 0.1 µM peptide, 14 h at 37°C, FACS. On the procedure:
Figure 3 Contributing mechanisms of immunodominance. […] T2 cell lines were incubated with decreasing peptide concentrations ranging from 100 µM to 0.1 µM indicated above the H peptide histogram and the cell surface peptide-loaded MHC complexes were detected by fluorochrome-conjugated mAb (DB Biosciences) and quantified using FACS flow cytometer. B) and C) Groups of 3 BALB/c mice were given 3x immunizations using 100 µg of DNA expressing the index or mutated forms of HIVA at 3 wk intervals and their T cell responses were analyzed 4 wk later. B) Splenocytes were assessed in an ICS assay using peptides indicated above the graphs at concentrations ranging from 10 to 10^−8 µM for 5 h. Cells were gated on IFN-γ-producing CD8^+ T cell populations positive (top) or negative (bottom) for CD107a/b. Note the different y-axis scales on the top and bottom graphs. C) The response kinetics of CD8^+ T cells re-stimulated with 0.1 µM peptides was assessed in an ICS assay in 1-h intervals for a period of 4 h. Data shown are as mean±SD of [CD8^+CD107a/b^+IFN-γ^+ cells at each time point (%)] ÷ [CD8^+CD107a/b^+IFN-γ^+ at 4 h (%)]. One out of two independent experiments is shown.
TAP2 ([…])-deficient T2 cell lines stably expressing D^d, K^d, and L^d molecules kindly provided by Dr. Ted Hansen (Washington university, U.S.A.) were used to assess the ability of MHCs to bind each peptide. In brief, 1×10^5 cells were incubated with 0/0.1/1.0/10/100 µM peptides in no-serum RPMI (R-0) for 14 h at 37°C, 5% CO2 in a flat-bottomed 96-well plate. 14 h later, cells were transferred to a round-bottomed 96-well plate and washed with PBS before staining the cells with anti-H-2K^d/H-2D^d-PE or anti-H-2L^d-PE (eBioscience) monoclonal antibodies. Cells were then analyzed on a FACS flow cytometer.

For assay [2], the system named is syngeneic peptide-pulsed cells. In words: in vivo killing assay (lysis of syngeneic peptide-pulsed cells). Conditions: HIVAdH vaccinated relative to HIVA vaccination; Figure 1F. Details: species or system BALB/c mice.
Assay [3] concerns CD8^+CD107a/b^+ T cells. Kind of assay: Multicolour flow cytometry after mixed or split vaccination. Format: cell-based, BALB/c mice. On the technique in general: In flow cytometry, cells or beads pass a laser one at a time.

“AMQMLKDTI [G1, H-2K^d-restricted, Gag residues 197–205]”: the “peptide binding affinities for respective MHC class I” value in assay [1] is “directly correlated with the immunodominance hierarchy”. Further, the “in vivo lysis of peptide-pulsed targets” value in assay [2] was “increased in vivo lysis”. Further, the “G1-specific response relative to epitopes H and P” value in assay [3] (Figure 4B groups 4 and 5, HIVA-dHmP and dHmP-HIVA prime-boost, 23-wk rest, WR.HIVA re-stimulation) was “significantly increased”. In assay [3] (Figure 4B groups 7 and 9, pre-mixed vaccines injected into 2 sites), the anti-G1 responses result is recorded as “failed to induce anti-G1 responses”.

The record behind these values is PMC3098219, “Protective Efficacy of Serially Up-Ranked Subdominant CD8^+ T Cell Epitopes against Virus Challenges” (PLoS Pathogens, 2011).
